Measured values reported in ChEMBL document CHEMBL5625247, “Tetrahydro-β-carboline derivatives as potent histone deacetylase 6 inhibitors with broad-spectrum antiproliferative activity” (Eur J Med Chem, 2023).

Columns and labels:
SK-MEL-2 = experiment: Antiproliferative activity against human SK-MEL-2 cells assessed as cell growth inhibition incubated for 72 hrs by alamar blue dye based assay; assay type: functional
SF-539 = experiment: Antiproliferative activity against human SF-539 cells assessed as cell growth inhibition incubated for 72 hrs by alamar blue dye based assay; assay type: functional
COLO 205 = experiment: Antiproliferative activity against human COLO 205 cells assessed as cell growth inhibition incubated for 72 hrs by alamar blue dye based assay; assay type: functional
SR = experiment: Antiproliferative activity against human SR cells assessed as cell growth inhibition incubated for 72 hrs by alamar blue dye based assay; assay type: functional
A549 = experiment: Antiproliferative activity against human A549 cells assessed as cell growth inhibition incubated for 72 hrs by alamar blue dye based assay; assay type: functional
EKVX = experiment: Antiproliferative activity against human EKVX cells assessed as cell growth inhibition incubated for 72 hrs by alamar blue dye based assay; assay type: functional
KM12 = experiment: Antiproliferative activity against human KM12 cells assessed as cell growth inhibition incubated for 72 hrs by alamar blue dye based assay; assay type: functional
LOX IMVI = experiment: Antiproliferative activity against human LOX IMVI cells assessed as cell growth inhibition incubated for 72 hrs by alamar blue dye based assay; assay type: functional
SK-MEL-28 = experiment: Antiproliferative activity against human SK-MEL-28 cells assessed as cell growth inhibition incubated for 72 hrs by alamar blue dye based assay; assay type: functional
RPMI-8226 = experiment: cells; assay type: functional, cell-based; conditions: Homo sapiens; for GI50: RPMI-8226, time 72 hrs
CAKI-1 = experiment: Antiproliferative activity against human CAKI-1 cells assessed as cell growth inhibition incubated for 72 hrs by alamar blue dye based assay; assay type: functional
Hs-578T = experiment: Antiproliferative activity against human Hs-578T cells assessed as cell growth inhibition incubated for 72 hrs by alamar blue dye based assay; assay type: functional
M14 = experiment: Antiproliferative activity against human M14 cells assessed as cell growth inhibition incubated for 72 hrs by alamar blue dye based assay; assay type: functional
MCF7 = experiment: Antiproliferative activity against human MCF7 cells assessed as cell growth inhibition incubated for 72 hrs by alamar blue dye based assay; assay type: functional
A498 = experiment: Antiproliferative activity against human A498 cells assessed as cell growth inhibition incubated for 72 hrs by alamar blue dye based assay; assay type: functional
K562 = experiment: Antiproliferative activity against human K562 cells assessed as cell growth inhibition incubated for 72 hrs by alamar blue dye based assay; assay type: functional
HCT-116 = experiment: Antiproliferative activity against human HCT-116 cells assessed as cell growth inhibition incubated for 72 hrs by alamar blue dye based assay; assay type: functional
HCC 2998 = experiment: Antiproliferative activity against human HCC 2998 cells assessed as cell growth inhibition incubated for 72 hrs by alamar blue dye based assay; assay type: functional
RXF 393 = experiment: Antiproliferative activity against human RXF 393 cells assessed as cell growth inhibition incubated for 72 hrs by alamar blue dye based assay; assay type: functional
NCI-H460 = experiment: Antiproliferative activity against human NCI-H460 cells assessed as cell growth inhibition incubated for 72 hrs by alamar blue dye based assay; assay type: functional
NCI-H522 = experiment: Antiproliferative activity against human NCI-H522 cells assessed as cell growth inhibition incubated for 72 hrs by alamar blue dye based assay; assay type: functional
ACHN = experiment: Antiproliferative activity against human ACHN cells assessed as cell growth inhibition incubated for 72 hrs by alamar blue dye based assay; assay type: functional
UACC-257 = experiment: Antiproliferative activity against human UACC-257 cells assessed as cell growth inhibition incubated for 72 hrs by alamar blue dye based assay; assay type: functional
BT-549 = experiment: Antiproliferative activity against human BT-549 cells assessed as cell growth inhibition incubated for 72 hrs by alamar blue dye based assay; assay type: functional
SW-620 = experiment: Antiproliferative activity against human SW620 cells assessed as cell growth inhibition incubated for 72 hrs by alamar blue dye based assay; assay type: functional
NCI-H322M = experiment: Antiproliferative activity against human NCI-H322M cells assessed as cell growth inhibition incubated for 72 hrs by alamar blue dye based assay; assay type: functional
SF-268 = experiment: Antiproliferative activity against human SF-268 cells assessed as cell growth inhibition incubated for 72 hrs by alamar blue dye based assay; assay type: functional
NCI/ADR-RES = experiment: Antiproliferative activity against human NCI-ADR-RES cells assessed as cell growth inhibition incubated for 72 hrs by alamar blue dye based assay; assay type: functional
T47D = experiment: Antiproliferative activity against human T47D cells assessed as cell growth inhibition incubated for 72 hrs by alamar blue dye based assay; assay type: functional
OVCAR-4 = experiment: Antiproliferative activity against human OVCAR-4 cells assessed as cell growth inhibition incubated for 72 hrs by alamar blue dye based assay; assay type: functional
OVCAR-3 = experiment: Antiproliferative activity against human OVCAR-3 cells assessed as cell growth inhibition incubated for 72 hrs by alamar blue dye based assay; assay type: functional
TK-10 = experiment: Antiproliferative activity against human TK-10 cells assessed as cell growth inhibition incubated for 72 hrs by alamar blue dye based assay; assay type: functional
MDA-MB-468 = experiment: Antiproliferative activity against human MDA-MB-468 cells assessed as cell growth inhibition incubated for 72 hrs by alamar blue dye based assay; assay type: functional
HT-29 = experiment: Antiproliferative activity against human HT-29 cells assessed as cell growth inhibition incubated for 72 hrs by alamar blue dye based assay; assay type: functional
IGROV-1 = experiment: Antiproliferative activity against human IGROV-1 cells assessed as cell growth inhibition incubated for 72 hrs by alamar blue dye based assay; assay type: functional
SNB-19 = experiment: Antiproliferative activity against human SNB-19 cells assessed as cell growth inhibition incubated for 72 hrs by alamar blue dye based assay; assay type: functional
NCI-H226 = experiment: Antiproliferative activity against human NCI-H226 cells assessed as cell growth inhibition incubated for 72 hrs by alamar blue dye based assay; assay type: functional
SF-295 = experiment: Antiproliferative activity against human SF-295 cells assessed as cell growth inhibition incubated for 72 hrs by alamar blue dye based assay; assay type: functional
HL-60(TB) = experiment: Antiproliferative activity against human HL-60(TB) cells assessed as cell growth inhibition incubated for 72 hrs by alamar blue dye based assay; assay type: functional
SK-MEL-5 = experiment: Antiproliferative activity against human SK-MEL-5 cells assessed as cell growth inhibition incubated for 72 hrs by alamar blue dye based assay; assay type: functional
HCT-15 = experiment: Antiproliferative activity against human HCT-15 cells assessed as cell growth inhibition incubated for 72 hrs by alamar blue dye based assay; assay type: functional
SK-OV-3 = experiment: Antiproliferative activity against human SK-OV-3 cells assessed as cell growth inhibition incubated for 72 hrs by alamar blue dye based assay; assay type: functional
MOLT-4 = experiment: Antiproliferative activity against human MOLT-4 cells assessed as cell growth inhibition incubated for 72 hrs by alamar blue dye based assay; assay type: functional
DU-145 = experiment: Antiproliferative activity against human DU-145 cells assessed as cell growth inhibition incubated for 72 hrs by alamar blue dye based assay; assay type: functional
SN12C = experiment: Antiproliferative activity against human SN12C cells assessed as cell growth inhibition incubated for 72 hrs by alamar blue dye based assay; assay type: functional
Malme-3M = experiment: Antiproliferative activity against human Malme-3M cells assessed as cell growth inhibition incubated for 72 hrs by alamar blue dye based assay; assay type: functional
MDA-MB-231 = experiment: Antiproliferative activity against human MDA-MB-231 cells assessed as cell growth inhibition incubated for 72 hrs by alamar blue dye based assay; assay type: functional

O=C(NO)c1ccc(CNC(=O)[C@H]2Cc3c([nH]c4ccccc34)[C@H](c3ccc(Cl)cc3)N2)cc1
GI50 (SK-MEL-2): 2770 nM | GI50 (SF-539): 1140 nM | GI50 (COLO 205): 719 nM | GI50 (SR): 1150 nM | GI50 (A549): 3970 nM | GI50 (EKVX): 2650 nM | GI50 (KM12): 2360 nM | GI50 (LOX IMVI): 1090 nM | GI50 (SK-MEL-28): 878 nM | IC50 (RPMI-8226; RPMI-8226, 72 h): 620 nM | GI50 (RPMI-8226): 564 nM | GI50 (CAKI-1): 2330 nM | GI50 (Hs-578T): 1010 nM | GI50 (M14): 2200 nM | GI50 (MCF7): 874 nM | GI50 (A498): 2060 nM | GI50 (K562): 720 nM | GI50 (HCT-116): 609 nM | GI50 (HCC 2998): 605 nM | GI50 (RXF 393): 455 nM | GI50 (NCI-H460): 1020 nM | GI50 (NCI-H522): 584 nM | GI50 (ACHN): 3050 nM | GI50 (UACC-257): 1230 nM | GI50 (BT-549): 4930 nM | GI50 (SW-620): 687 nM | GI50 (NCI-H322M): 1620 nM | GI50 (SF-268): 2920 nM | GI50 (NCI/ADR-RES): 3350 nM | GI50 (T47D): 600 nM | GI50 (OVCAR-4): 3730 nM | GI50 (OVCAR-3): 1230 nM | GI50 (TK-10): 1510 nM | GI50 (MDA-MB-468): 380 nM | GI50 (HT-29): 838 nM | GI50 (IGROV-1): 1200 nM | GI50 (SNB-19): 2260 nM | GI50 (NCI-H226): 2270 nM | GI50 (SF-295): 1810 nM | GI50 (HL-60(TB)): 706 nM | GI50 (SK-MEL-5): 721 nM | GI50 (HCT-15): 4260 nM | GI50 (SK-OV-3): 2010 nM | GI50 (MOLT-4): 563 nM | GI50 (DU-145): 1080 nM | GI50 (SN12C): 2410 nM | GI50 (Malme-3M): 410 nM | GI50 (MDA-MB-231): 887 nM

COc1ccc(CN2[C@@H](C(=O)NCc3ccc(C(=O)NO)cc3)Cc3c([nH]c4ccccc34)[C@@H]2C2CC2)cc1
GI50 (SK-MEL-2): 4110 nM | GI50 (SF-539): 2480 nM | GI50 (COLO 205): 3470 nM | GI50 (SR): > 19800 nM | GI50 (A549): 3540 nM | GI50 (EKVX): 3200 nM | GI50 (KM12): 3510 nM | GI50 (LOX IMVI): 2370 nM | GI50 (SK-MEL-28): 1980 nM | GI50 (RPMI-8226): 2920 nM | GI50 (CAKI-1): 2400 nM | GI50 (Hs-578T): 1850 nM | GI50 (M14): 4070 nM | GI50 (MCF7): 2330 nM | GI50 (A498): 2770 nM | GI50 (K562): 1670 nM | GI50 (HCT-116): 2080 nM | GI50 (HCC 2998): 2600 nM | GI50 (RXF 393): 797 nM | GI50 (NCI-H460): 3140 nM | GI50 (NCI-H522): 965 nM | GI50 (ACHN): 3520 nM | GI50 (UACC-257): 2390 nM | GI50 (BT-549): 4990 nM | GI50 (SW-620): 2260 nM | GI50 (NCI-H322M): 4250 nM | GI50 (SF-268): 4400 nM | GI50 (NCI/ADR-RES): 4050 nM | GI50 (T47D): 3820 nM | GI50 (OVCAR-4): 4740 nM | GI50 (OVCAR-3): 3410 nM | GI50 (TK-10): 3170 nM | GI50 (MDA-MB-468): 1000 nM | GI50 (HT-29): 4840 nM | GI50 (IGROV-1): 2600 nM | GI50 (SNB-19): 2890 nM | GI50 (NCI-H226): 3410 nM | GI50 (SF-295): 2920 nM | GI50 (HL-60(TB)): 2730 nM | GI50 (SK-MEL-5): 2600 nM | GI50 (HCT-15): 3750 nM | GI50 (SK-OV-3): 2870 nM | GI50 (MOLT-4): 1850 nM | GI50 (DU-145): 4380 nM | GI50 (SN12C): 3860 nM | GI50 (Malme-3M): 847 nM | GI50 (MDA-MB-231): 2430 nM
